Each structure is given as a SMILES string.

From PMC12723449, “From Pharmacophore to Warhead: NAD^+‐Targeting Triazoles as Mechanism‐Based Sirtuin Inhibitors” (Angewandte Chemie (International Ed. in English), 2025) come the findings set out here.

For the assay, the target named is T1, SIRT2 (Homo sapiens, UniProt Q8IXJ6).
T1 construct: For assay experiments, strep-tagged human SIRT1134−747 and SIRT256-356 were expressed and purified as previously; Strep-tag; made in house; host or cells: E. coli BL21 Star (DE3)
T1 sequence (Q8IXJ6 56-356 limits assumed): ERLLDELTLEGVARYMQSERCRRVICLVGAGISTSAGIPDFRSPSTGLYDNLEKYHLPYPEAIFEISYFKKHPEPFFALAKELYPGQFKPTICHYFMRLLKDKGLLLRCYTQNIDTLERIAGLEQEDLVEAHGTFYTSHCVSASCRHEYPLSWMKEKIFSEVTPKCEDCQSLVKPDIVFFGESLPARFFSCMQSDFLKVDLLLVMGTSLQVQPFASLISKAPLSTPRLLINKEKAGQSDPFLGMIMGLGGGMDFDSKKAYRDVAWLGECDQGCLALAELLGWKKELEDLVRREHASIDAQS
Put plainly: CE-ESI-MS analysis of adducts formed in vitro. Type of assay: biochemical. Particulars: SIRT2 incubated with NAD+ and compound, thermal denaturation. The protocol:
Capillary electrophoresis–electrospray ionization–mass spectrometry (CE-ESI-MS) analysis of […]
Analysis of the enzymatic products were performed using a capillary electrophoresis coupled to mass spectrometry method (CE-MS) described first in the separation of inositol (pyro)phosphates.[11] CE (Agilent 7100 CE system) was coupled to a time-of-flight mass spectrometry Agilent 6545 system and ionization was performed with a commercially available Agilent Jet Stream (AJS) electrospray ionization (ESI) source. An Agilent liquid coaxial interface was used and the ionization spray was stabilized with a water-isopropanol (1:1 v/v) mixture as sheath liquid. The sheath liquid was pumped with an Agilent 1200 isocratic LC pump, using a 1:100 splitter and resulting in a flow of 1.5 µl/min.
A mixture of SIRT256-356 (final concentration of 11 mg/mL) in SEC buffer, compound 1 or 7 (3.33 mM of inhibitor with a final DMSO concentration of 3.33 % (v/v)) and NAD+ (final concentration of 10 mM) were incubated for 90 min and centrifuged for 5 min to remove inhibitor precipitate. Following SIRT2 denaturation at 65 °C for 1 min and centrifugation for 5 min to remove precipitated protein, 20 nL of each sample was injected under 100 mbar pressure for 20 s. […] Analytes were detected in negative ionization mode, a capillary voltage of -3000 V and an ESI spray current of 2.1 µA. […]

For the compound `Cc1cc(C)nc(SCC(=O)Nc2ncc(Cc3cccc(OCc4c[nH]nn4)c3)s2)n1` [Compound 7], the “ADPR adduct detected in solution by CE-ESI-MS” value is reported as “confirmed release of 7–ADPR”. The same measure for `COCCn1cc(COc2cccc(Cc3cnc(NC(=O)CSc4nc(C)cc(C)n4)s3)c2)nn1` [Compound 1, reference compound]: “undetectable”.
